In patent publication US20240150339A1, “Compounds and Their Use as PDE4 Activators” (Mironid Limited, priority 2021, published 2024):

These compounds were tested on m-IMCD3 cells (assay: Inhibition of PGE2-stimulated in vitro cyst formation in 3D culture of m-IMCD3 cells). Details: Mus musculus, mIMCD3, 144 h; 10 μM test compound; mean cyst area (%) compared to 100% for (DMSO + PGE2) and 0% for DMSO control; 100 nM PGE2; 6 days; read-out: % Cyst area after incubation with 10 μM test compound.
Assay type: cell-based, mouse
Procedure: HEK 293 and MDCK cells (Public Health England, Cell Culture Collections) were maintained in Dulbecco's Modified Eagle's Medium (DMEM) supplemented with 10% (v/v) fetal bovine serum (FBS) (Seralab), 2 mM L-glutamine and 100 U/ml penicillin streptomycin cocktail (ThermoFisher); termed complete media. Clonal HEK 293 cell lines were maintained in complete media supplemented with 0.6 mg/mL G418 (Enzo Life Sciences). Mouse inner medullary collecting duct (m-IMCD3) cells [American Type Culture Collection (ATCC)] were maintained in media consisting of DMEM/Hams F-12 50/50 Mix (DMEM F12; Corning) supplemented with penicillin streptomycin cocktail (100 U/ml) and FBS (10% v/v) (DMEM F12-10% FBS).
The mouse Inner Medullary Collecting Duct cell line (m-IMCD3) spontaneously forms cystic spheroids in 3D culture with a Type 1 collagen/Matrigel extracellular matrix. This process can be stimulated with agents which raise intracellular cAMP, such as PGE2, and is used as an in vitro model for the formation of cystic structures in the kidneys of patients with ADPKD.
Rat Collagen I (Fisher Scientific) is prepared on ice by neutralising with 1M NaOH and diluting with a 2×volume of DMEM/F12+10% FBS for coating plate (coating mix) and a 2.2 volume of DMEM/F12+10% FBS for cell plating (plating mix). This is mixed 1:1.1 with ice cold Matrigel (Corning) for coating plates (coating mix), and 1:0.95 with Matrigel for cell plating (plating mix).
The assay is conducted in the wells of a 96-well plate culture dish using a total volume of 130 μl of collagen/Matrigel/DMEM F12-10% FBS suspension in growth media for each matrix plug per individual well. Initially, 30 μl of collagen/Matrigel/DMEM F12-10% FBS (coating mix) is added into the well of a 96 well plate and the collagen is set to a gel by incubating at 37° C. for at least 15 minutes. A second layer of 100 μl collagen/Matrigel suspension (plating mix) containing m-IMCD3 cells (2.75×10^6 m-IMCD3 cells per 96-well plate) is layered over the coating mix and the collagen/Matrigel/cell mix again set to a gel by incubating at 37° C. Cell cultures are maintained at 37° C. in an atmosphere of 5% CO2, 95% air.
Between 18 and 24h after plating, test compound(s) as DMSO stock solutions [0.1% (v/v) final DMSO concentration] and PGE2 (100 nM final concentration) in DMEM F12-10% FBS are added in quadruplicate wells per condition. Media, togetherwith the test compound and PGE2 are replenished after 2 or 3 days. After 6 days of culture z stack images of the wells are captured using the Nikon Eclipse Ti2-E microscope. Nikon General Analysis software is used to measure the following parameters in each well: the mean cyst area, the number of cysts, and the total cyst area.
PDE4 long form activators inhibited in vitro cyst formation in m-IMCD3 cells. Data are shown in FIG. 2 and Table 5 as mean cyst area (%), compared to 100% for (DMSO+PGE2) and 0% for DMSO control.

First: COC1CCN(c2nc3ccc(C(=O)N[C@H]4CCOc5ccccc54)cc3s2)CC1 [Example 70, (S)-N-(chroman-4-yl)-2-(4-methoxypiperidin-1-yl)benzo[d]thiazole-6-carboxamide]
Second: CCN1CCN(c2nc3ccc(C(=O)N[C@@H]4CCOc5ccccc54)cc3s2)CC1 [Example 73, (R)-N-(chroman-4-yl)-2-(4-ethylpiperazin-1-yl)benzo[d]thiazole-6-carboxamide]
The activity at 10 µM of the first is lower: -18% for the first, 26% for the second.

Going from `O=C(NC1CCCC1)c1ccc2nc(C3CCN(CCO)CC3)sc2c1` [Example 171, N-cyclopentyl-2-(1-(2-hydroxyethyl)piperidin-4-yl)benzo[d]thiazole-6-carboxamide] to `CN1CCC(c2nc3ccc(C(=O)N[C@@H]4CCC[C@H]4O)cc3s2)CC1` [Example 274, N-[(1R,2R)-2-hydroxycyclopentyl]-2-(1-methylpiperidin-4-yl)benzo[d]thiazole-6-carboxamide], the activity at 10 µM rises from 13% to 16%.

First: O=C(N[C@H]1CCc2ccccc21)c1ccc2nc(C3CCNCC3)sc2c1 [Example 127, (S)-N-(2,3-dihydro-1H-inden-1-yl)-2-(piperidin-4-yl)benzo[d]thiazole-6-carboxamide]
Second: O=C(N[C@@H]1c2ccccc2C[C@H]1O)c1ccc2nc(C3CCNCC3)sc2c1 [Example 128, N-((1R,2R)-2-hydroxy-2,3-dihydro-1H-inden-1-yl)-2-(piperidin-4-yl)benzo[d]thiazole-6-carboxamide]
The activity at 10 µM of the first is higher: 13% for the first, 3% for the second.

First: COc1ccc2c(c1)CC[C@@H]2NC(=O)c1ccc2nc(N3CCNCC3)sc2c1 [Example 108, (S)-N-(5-methoxy-2,3-dihydro-1H-inden-1-yl)-2-(piperazin-1-yl)benzo[d]thiazole-6-carboxamide]
Second: COc1ccc2c(c1)OCC[C@H]2NC(=O)c1ccc2nc(N3CCNCC3)sc2c1 [Example 93, (R)-N-(7-methoxychroman-4-yl)-2-(piperazin-1-yl)benzo[d]thiazole-6-carboxamide]
The activity at 10 µM of the first is higher: 22% for the first, 9% for the second.

First: O=C(N[C@H]1CCc2cccc(F)c21)c1ccc2nc(N3CCNCC3)sc2c1 [Example 98, (S)-N-(7-fluoro-2,3-dihydro-1H-inden-1-yl)-2-(piperazin-1-yl)benzo[d]thiazole-6-carboxamide]
Second: O=C(N[C@@H]1CCc2c(F)cccc21)c1ccc2nc(N3CCNCC3)sc2c1 [Example 104, (R)-N-(4-fluoro-2,3-dihydro-1H-inden-1-yl)-2-(piperazin-1-yl)benzo[d]thiazole-6-carboxamide]
The activity at 10 µM of the first is lower: 27% for the first, 30% for the second.

First: CCN1CCC(c2nc3ccc(C(=O)NCc4ccncc4)cc3s2)CC1 [Example 275, 2-(1-ethylpiperidin-4-yl)-N-(pyridin-4-ylmethyl)benzo[d]thiazole-6-carboxamide]
Second: CCN1CCN(c2nc3ccc(C(=O)NCc4ccc(F)cc4)cc3s2)CC1 [Example 80, 2-(4-ethylpiperazin-1-yl)-N-(4-fluorobenzyl)benzo[d]thiazole-6-carboxamide]
The activity at 10 µM of the first is lower: -2% for the first, 26% for the second.

First: O=C(NC1CCOCC1)c1ccc2nc(C3CCNCC3)sc2c1 [Example 138, 2-(piperidin-4-yl)-N-(tetrahydro-2H-pyran-4-yl)benzo[d]thiazole-6-carboxamide]
Second: COc1cc2nc(C3CCNCC3)sc2cc1C(=O)NC1CCOCC1 [Example 200, 5-methoxy-2-(piperidin-4-yl)-N-(tetrahydro-2H-pyran-4-yl)benzo[d]thiazole-6-carboxamide]
The activity at 10 µM of the first is higher: 20% for the first, 3% for the second.

First: CC(C)NC(=O)c1cc(C2CC2)c2nc(C3CCNCC3)sc2c1 [Example 232, 4-cyclopropyl-N-isopropyl-2-(piperidin-4-yl)benzo[d]thiazole-6-carboxamide]
Second: Cc1cc(C(=O)N[C@H]2CCOc3ccccc32)cc2sc(C3CCNCC3)nc12 [Example 186, (S)-N-(chroman-4-yl)-4-methyl-2-(piperidin-4-yl)benzo[d]thiazole-6-carboxamide]
The activity at 10 µM of the first is lower: -2% for the first, 4% for the second.

Compared with `O=C(N[C@H]1CCOc2ccccc21)c1ccc2nc(N3CC4CCC(C3)N4)sc2c1` [Example 121, 2-(3,8-diazabicyclo[3.2.1]octan-3-yl)-N-((S)-chroman-4-yl)benzo[d]thiazole-6-carboxamide], `O=C(N[C@H]1CCOc2ccccc21)c1ccc2nc(N3C[C@H]4C[C@@H]3CN4)sc2c1` [Example 78, 2-((1R,4R)-2,5-diazabicyclo[2.2.1]heptan-2-yl)-N-((S)-chroman-4-yl)benzo[d]thiazole-6-carboxamide] is higher in activity at 10 µM: 15% for the first, 24% for the second.

Compared with `CCN1CCC(c2nc3cc(C)c(C(=O)N[C@H]4CCOc5ccccc54)cc3s2)CC1` [Example 191, (S)-N-(chroman-4-yl)-2-(1-ethylpiperidin-4-yl)-5-methylbenzo[d]thiazole-6-carboxamide], `COCCOCCN1CCC(c2nc3ccc(C(=O)N[C@H]4CCOc5ccccc54)cc3s2)CC1` [Example 175, (S)-N-(chroman-4-yl)-2-(1-(2-(2-methoxyethoxy)ethyl)piperidin-4-yl)benzo[d]thiazole-6-carboxamide] is lower in activity at 10 µM: 3% for the first, -14% for the second.

Compared with `CC(CO)c1cc(C(=O)NC2CCCC2)cc2sc(N3C4CCC3CNC4)nc12` (stereo not drawn) [Example 249, N-cyclopentyl-2-(3,8-diazabicyclo[3.2.1]octan-8-yl)-4-(1-hydroxypropan-2-yl)-benzo[d]thiazole-6-carboxamide], `O=C(NC1CCCC1)c1cc(Br)c2nc(N3C4CCC3CNC4)sc2c1` [Example 237, 2-(3,8-diazabicyclo[3.2.1]octan-8-yl)-4-bromo-N-cyclopentylbenzo[d]thiazole-6-carboxamide] is higher in activity at 10 µM: 9% for the first, 11% for the second.

Compared with `O=C(N[C@@H]1c2ccccc2C[C@@H]1O)c1ccc2nc(C3CCNCC3)sc2c1` [Example 130, N-((1R,2S)-2-hydroxy-2,3-dihydro-1H-inden-1-yl)-2-(piperidin-4-yl)benzo[d]thiazole-6-carboxamide], `O=C(N[C@H]1CCOc2c(F)cccc21)c1ccc2nc(N3CCNCC3)sc2c1` [Example 85, (S)-N-(8-fluorochroman-4-yl)-2-(piperazin-1-yl)benzo[d]thiazole-6-carboxamide] is lower in activity at 10 µM: -2% for the first, -12% for the second.

Going from `CCN1CCN(c2nc3ccc(C(=O)NC4CCCC4)cc3s2)CC1` [Example 81, N-cyclopentyl-2-(4-ethylpiperazin-1-yl)benzo[d]thiazole-6-carboxamide] to `Cc1cc(C(=O)NC2CCCC2)cc2sc(N3CCNCC3)nc12` [Example 206, N-cyclopentyl-4-methyl-2-(piperazin-1-yl)benzo[d]thiazole-6-carboxamide], the activity at 10 µM rises from 7% to 14%.

First: COc1cccc(CNC(=O)c2ccc3nc(-c4cncc(C)c4)sc3c2)c1 [Example 36, N-(3-methoxybenzyl)-2-(5-methylpyridin-3-yl)benzo[d]thiazole-6-carboxamide]
Second: Cc1cncc(-c2nc3ccc(C(=O)NCc4ccccc4)cc3s2)c1 [Example 30, N-benzyl-2-(5-methylpyridin-3-yl)benzo[d]thiazole-6-carboxamide]
The activity at 10 µM of the first is higher: 30% for the first, 21% for the second.

First: CN1CCC(c2nc3c(Cl)cc(C(=O)NC4CCCC4)cc3s2)CC1 [Example 231, 4-chloro-N-cyclopentyl-2-(1-methylpiperidin-4-yl)benzo[d]thiazole-6-carboxamide]
Second: COc1cc2nc(N3CCNCC3)sc2cc1C(=O)N[C@H]1CCc2ccccc21 [Example 224, (S)-N-(2,3-dihydro-1H-inden-1-yl)-5-methoxy-2-(piperazin-1-yl)benzo[d]thiazole-6-carboxamide]
The activity at 10 µM of the first is lower: 1% for the first, 8% for the second.

First: CC(C)c1ccc(-c2nc3ccc(C(=O)N[C@H]4CCOc5ccccc54)cc3s2)cn1 [Example 28, (S)-N-(chroman-4-yl)-2-(6-isopropylpyridin-3-yl)benzo[d]thiazole-6-carboxamide]
Second: Cc1ncccc1-c1nc2ccc(C(=O)NCc3ccc(F)cc3)cc2s1 [Example 2, N-(4-fluorobenzyl)-2-(2-methylpyridin-3-yl)benzo[d]thiazole-6-carboxamide]
The activity at 10 µM of the first is higher: 26% for the first, -9% for the second.

Same assay, conditions: result in words

`CCN1CCC(c2nc3cc(C)c(C(=O)N[C@H]4CCOc5ccccc54)cc3s2)CC1` [Example 191, (S)-N-(chroman-4-yl)-2-(1-ethylpiperidin-4-yl)-5-methylbenzo[d]thiazole-6-carboxamide] was tested, and the “Inhibition of PGE2-stimulated cyst formation in 3D culture of m-IMCD3 cells (FIG. 2)” value was “concentration-dependent inhibition”.
